Assay results taken from ChEMBL document CHEMBL1135121, “Design and synthesis of some new pyranoxanthenone aminoderivatives with cytotoxic activity” (Bioorg Med Chem Lett, 2002).

Legend:
[1] = tested on: L1210; experiment: Inhibitory concentration of compound against proliferation of murine leukemia L1210 cell line; type: functional, cell-based; details: Mus musculus
[2] = tested on: A549; experiment: Inhibitory concentration of compound against proliferation of lung carcinoma A549 cell line; type: functional, cell-based; details: Homo sapiens
[3] = tested on: HT-29; experiment: Cell-cycle-phase distribution of HT-29 cell-cultures exposed to 10 uM concentration of compound for 22 hr in G2/M phase; type: functional, Homo sapiens
[4] = tested on: HT-29; experiment: Inhibitory concentration of compound against proliferation of colon carcinoma HT-29 cell line; type: functional, cell-based; details: Homo sapiens
[5] = tested on: HT-29; experiment: Cell-cycle-phase distribution of HT-29 cell-cultures exposed to 10 uM concentration of compound for 22 hr in G0/G1 phase; type: functional, Homo sapiens
[6] = tested on: HT-29; experiment: Cell-cycle-phase distribution of HT-29 cell-cultures exposed to 10 uM concentration of compound for 22 hr in S phase; type: functional, Homo sapiens
[7] = tested on: Calf thymus DNA; experiment: In vitro calf thymus DNA binding affinity by ethidium bromide displacement; type: nucleic-acid assay, Bos taurus
[8] = tested on: Nucleic Acid; experiment: In vitro DNA binding affinity for calf thymus DNA was determined using ethidium bromide displacement assay; Not detected; type: nucleic-acid assay, Bos taurus

Compound	IC50 [1] [µM]	IC50 [2] [µM]	Activity [3]	IC50 [4] [µM]	Activity [5]	Activity [6]	EC50 [7] [µM]	EC50 [8]
CCN(CC)CCNCc1cc2c(c3oc4ccccc4c(=O)c13)C=CC(C)(C)O2.O=C(O)/C=C/C(=O)O	2	11	7.77	1.7	79.7	12.53	42	–
CCN(CC)CCNc1cc2c(c3oc4ccccc4c(=O)c13)C=CC(C)(C)O2	8.4	> 100	–	42	–	–	88	–
CN(C)CCNC(=O)c1cc2c(c3oc4ccccc4c(=O)c13)C=CC(C)(C)O2	16	90	–	12	–	–	197	–
CCN(CC)CCNC(=O)c1cc2c(c3oc4ccccc4c(=O)c13)C=CC(C)(C)O2	10	60	–	30	–	–	150	–
CCN(CC)CCNC(=O)c1c2c(cc3oc4ccccc4c(=O)c13)OC(C)(C)C=C2	9	51	37.7	40	61.24	1.06	100	–
CN(C)CCNC(=O)c1c2c(cc3oc4ccccc4c(=O)c13)OC(C)(C)C=C2	12	57	–	60	–	–	107	–
CN(C)CCNc1c2c(cc3oc4ccccc4c(=O)c13)OC(C)(C)C=C2.Cl	5.8	30	–	23	–	–	–	Not detected
CN(C)CCNc1cc2c(c3oc4ccccc4c(=O)c13)C=CC(C)(C)O2	7.1	23	–	8	–	–	89	–
CCN(CC)CCNc1c2c(cc3oc4ccccc4c(=O)c13)OC(C)(C)C=C2.Cl	5.1	25	–	8	–	–	–	Not detected
CN(C)CCNCc1cc2c(c3oc4ccccc4c(=O)c13)C=CC(C)(C)O2	4.1	44	–	8.8	–	–	74	–
CN(C)CCNCc1c2c(cc3oc4ccccc4c(=O)c13)OC(C)(C)C=C2	4	25	–	6.4	–	–	39	–
CCN(CC)CCNCc1c2c(cc3oc4ccccc4c(=O)c13)OC(C)(C)C=C2.Cl	2	8	8.86	2	69.92	21.22	30	–
COc1cc2c(c3c1c(=O)c1ccccc1n3C)C=CC(C)(C)O2 [ACRONINE]	27	> 100	–	> 100	–	–	82	–
O=C1c2c(O)ccc(O)c2C(=O)c2c(NCCNCCO)ccc(NCCNCCO)c21 [MITOXANTRONE]	0.04	0.3	–	8	–	–	0.4	–
